Values quoted from earlier work as cited in patent US8607989B2, “Filter composites for drug detoxification” (Vascular Vision Pharmaceutical Co., priority 2009, dated 2013).

Test system: breast, colon, and gastric cancer; renal cell carcinoma; and sarcoma

## O=C1[O][Pt]2([NH][C@@H]3CCCC[C@H]3[NH]2)[O]C1=O [Oxaliplatin]
  activity in in vivo studies: active
